Reference: US20260327628A1, “AN RNA APTAMER THAT BINDS TO ASP7967 OR AN ANALOGUE THEREOF” (priority 2022, published 2026)
pKd: −log10 of the molar value. Entries after “also recorded” stand apart in the source; their conditions may differ. Read-outs that look alike come from different tables or passages of the source.

Legend:
AC17-4 RNA aptamer = assay: Affinity measurement by SPR, AC17-4 immobilized chip; format: binding; conditions: for pKd: 25 °C; for affinity for AC17-4 (in words): ASP2905 versus ASP7967
Description: Affinity measurements of the aptamers with the ligands by SPR were performed as described by Chang et al.^53 with some modifications. Experiments were performed on Biacore T200 (Cytiva) at 25° C. For immobilization of the capture DNA (5′-/5AmMC6/[…]-3′ (SEQ ID NO: 32),/5AmMC6/: 5′ amino modifier C6, IDT), 1×HBS-N (10 mM HEPES, pH 7.4, 150 mM NaCl) was used as the running buffer. CM5 chip surface was washed by two injections of NaOH/NaCl solution (25 mM NaOH, 1 M NaCl) at 20 μl min^−1 for 30 s. Next, a solution containing 200 mM 1-ethyl-3-(3-dimethylaminopropyl) carbodiimide hydrochloride (EDC) and 50 mM N-hydroxysuccinimide (NHS) was injected into all flow cells at 10 μl min^−1 for 7 min to activate the surface carboxylic acid groups. Then, the capture DNA (20 μM) in 10 mM HEPES-KOH buffer (pH 7.5) supplemented with 0.6 mM cetyltrimethylammonium bromide was injected at 5 μl min^−1 for 10 min. The unreacted activated carboxylic acid groups were quenched by an injection of 1 M ethanolamine-HCl (pH 8.5) for 7 min at 10 μl min^−1. To remove the noncovalently adsorbed DNA on the chip surface, NaOH/NaCl solution was injected two times at 20 μl min^−1 for 30 s. The immobilized DNA levels were 2846±284 RU.
The dsDNA templates for in vitro transcription of the aptamers were prepared by primer extension of two oligo DNAs using Q5 High-Fidelity DNA Polymerase (NEB). AC17-4 RNA aptamer and its mutants containing 3′ poly(A) tail (Table 4) were synthesized by in vitro transcription using ScriptMAX Thermo T7 Transcription Kit (TOYOBO) according to the manufacturer's instructions. The reaction products were treated with 2 U TURBO DNase (Thermo Fisher Scientific) for 30 min at 37° C. and purified with RNA Clean & Concentrator-25 Kit (Zymo Research). RNA concentrations were determined by absorbance at 260 nm according to OligoCalc^54. RNA solutions (~3.6 μM) were prepared in water and denatured by heating at 80° C. for 3 min. After cooling at room temperature for few minutes, the RNA solutions were diluted with an equal volume of high salt buffer (10 mM Tris-HCl, pH 7.5, 1 M NaCl, 1 mM EDTA). Stock solutions of ASP2905 and ASP7967 in DMSO (20 mM, fumaric acid adduct, Astellas Pharma, Inc.) were prepared based on the weight. […] An aptamer ligand was injected at 30 μl min^−1 for 120 s to monitor association, and then the dissociation kinetics was monitored for 180 s in the SPR running buffer. […] The raw data were analysed by Biacore T200 Evaluation Software 1.0 using 1:1 Langmuir interaction model. […] Dissociation constant (KD) was determined from the ratio of the association and the dissociation rate constants (KD=koff/kon) or by equilibrium analysis. […]

[1] = system: hEPO secretion from HEK293 cells; assay: In vitro hEPO assay (ELISA), AAV vector plasmids in HEK293 cells; format: cell-based, human
Description: For the hEPO ELISA assay in FIG. 9b, HEK293 cells were trypsinized and diluted to 2.0×10^5 cells ml^−1 and 100 μl per well were seeded onto a 96-well collagen plate. Cells in each well were transfected with 100 ng of the pAAV-CMV-hEPO-p3-d pAAV-CMV-hEPO-control, pAAV-MCS-based plasmids encoding human EPO with or without CPP-a8c-AC17-4 riboswitch using 0.3 μl of TransIT-293 Transfection Reagent according to the manufacturer's instructions. The medium in each well was replaced with fresh medium with (up to 10 μM) or without ASP7967 5 h after transfection. At 24 h after transfection, the medium in each well was collected and stored at −20° C. To measure hEPO concentrations, the medium was diluted 50-fold by PBS and further diluted 50-fold by the specimen diluent buffer included in the ELISA kit. The diluted samples were measured using Human Erythropoietin/EPO Quantikine ELISA Kit (R&D systems, Inc.) and Infinite M200 PRO microplate reader (TECAN).
Then, a8c-AC17-4-CPP was inserted into the 3′ UTR region of hEPO gene expressed from the CMV promoter in a plasmid containing AAV2 inverted terminal repeats (ITR) (pAAV-CMV-hEPO-a8c-AC17-4-CPP) (FIG. 9a). The plasmid pAAV-CMV-hEPO-a8c-AC17-4-CPP was transfected into HEK293 cells in the absence or presence (0.1~10 μM) of ASP7967. Two days after transfection, hEPO concentrations in the culture medium were measured by ELISA. […]

[2] = Pharmacokinetics of ASP7967 in mice after oral administration (LC-MS/MS); format: in vivo, mice (BALB/c cAJc1); conditions: for Tmax: first sampling time point
Description: FIG. 10 Pharmacokinetics of ASP7967 in mice after oral administration. After oral administration at 100 mg kg^−1 to mice (BALB/c cAJc1), plasma and liver concentrations of ASP7967 were measured using liquid chromatography-tandem mass spectrometry (LC-MS/MS). ASP7967 concentrations in both plasma and liver reached maxima within the first sampling time point of 1 h and then decreased over time.

SMILES	pKd (AC17-4 RNA aptamer)	affinity for AC17-4 (in words) (AC17-4 RNA aptamer)	hEPO level in medium relative to control plasmid ([1]; 10 μM ASP7967, pAAV-CMV-hEPO-a8c-AC17-4-CPP)	fold induction at 10 µM ([1]; Homo sapiens, HEK293, 24 h, read-out: induction of hEPO)	Tmax ([2]; mouse, liver, 100 mg kg^−1 oral, read-out: time of maximum liver concentration)	Kp ([2]; mouse, liver, 100 mg kg^−1 oral, read-out: concentration ratio of liver to plasma)	Tmax ([2]; mouse, plasma, 100 mg kg^−1 oral, read-out: time of maximum plasma concentration)	concentration in the liver / distribution (in words) ([2]; oral administration)
Fc1ccc(Nc2nc(NCc3ncccn3)nc(Nc3ccc(F)cc3)n2)cc1 [ASP7967]	7.92	comparable affinity	29%	10	≤ 1 h	2.7 to 30.6	≤ 1 h	high concentration; also recorded: distributed to the liver
Fc1ccc(Nc2nc(NCc3ncccn3)nc(Nc3ccccc3)n2)cc1 [ASP2905, reference compound]	8.11	comparable affinity						
